Patent publication US20100305068A1, “COMPOUNDS AND METHODS FOR MODULATING PROTEIN TRAFFICKING” (priority 2006, published 2010)

Test system: pdr5 ypt1^ts cells
Experiment: microbe, parasite or virus in culture
Type: cell-based, yeast
Details: 37° C.; for optical density, 3.13 uM / optical density, 12.5 uM / optical density, 50 uM: Table 3, background (0 uM) 0.077; for optical density, 3.13 uM: 3.13 uM compound; for optical density, 12.5 uM: 12.5 uM compound; for optical density, 50 uM: 50 uM compound; for minimal effective concentration: Saccharomyces cerevisiae, lowest concentration tested giving growth above the 0 μM background, read-out: ypt1-ts MRC (minimal rescue concentration); for minimal effective concentration / optical density, ypt1-ts, 0.39 / optical density, ypt1-ts, 0.78 / optical density, ypt1-ts, 1.56 / optical density, ypt1-ts, 3.13 / optical density, ypt1-ts, 6.25 / optical density, ypt1-ts, 12.5 / optical density, ypt1-ts, 25: Table 2; for optical density, ypt1-ts, 0.39: 0.39 μM compound; for optical density, ypt1-ts, 0.39 / optical density, ypt1-ts, 0.78 / optical density, ypt1-ts, 1.56 / optical density, ypt1-ts, 3.13 / optical density, ypt1-ts, 6.25 / optical density, ypt1-ts, 12.5 / optical density, ypt1-ts, 25: background (0 μM) 0.058; for optical density, ypt1-ts, 0.78: 0.78 μM compound; for optical density, ypt1-ts, 1.56: 1.56 μM compound; for optical density, ypt1-ts, 3.13: 3.13 μM compound; for optical density, ypt1-ts, 6.25: 6.25 μM compound; for optical density, ypt1-ts, 12.5: 12.5 μM compound; for optical density, ypt1-ts, 25: 25 μM compound
Text: The activity of the compounds as modulators of protein trafficking may be measured in the assays described herein that evaluate the ability of a compound to rescue an impairment in protein trafficking. For example, the yeast mutant cell line ypt1^ts can be used to identify compounds that rescue cells from the lethal phenotype of a mutant YPT1 allele (see, e.g., Examples and Schmitt et al. (1988) Cell 53:635-47). The activity may be measured, for example, in a whole yeast cell assay using 384-well screening protocol and an optical density measurement.
The yeast mutant cell line ypt1^ts suppresses, in a temperature dependent fashion, the dominant-lethal phenotype of a mutant YPT1 allele (Schmitt et al. (1988) Cell 53:635-47). ypt1^ts cells grow normally at temperatures up to 30° C., but are growth arrested at 37° C. (Id.).
A library of compounds (“The Spectrum Collection”) obtained from Microsource Discovery Systems, Inc. (Gaylordsville, Conn.) was screened to assess the ability of individual compounds to restore growth of ypt1^ts cells. Screening was carried out using ypt1^ts cells containing a mutation in the pdr5 gene (resulting in inactivation of a membrane efflux pump). The effect of the compounds was measured in pdr5 ypt1^ts cells cultured at 37° C.

| Structure (SMILES) | optical density, 3.13 uM | optical density, 12.5 uM | optical density, 50 uM | minimal effective concentration [µM] | optical density, ypt1-ts, 0.39 | optical density, ypt1-ts, 0.78 | optical density, ypt1-ts, 1.56 | optical density, ypt1-ts, 3.13 | optical density, ypt1-ts, 6.25 | optical density, ypt1-ts, 12.5 | optical density, ypt1-ts, 25 |
| --- | --- | --- | --- | --- | --- | --- | --- | --- | --- | --- | --- |
| CC(C)C1=CC2=CC[C@H]3[C@](C)(CO)CCC[C@]3(C)C2CC1 (stereo partly drawn) [ABIETANOL] | 0.102 | 0.274 | 0.29 | – | – | – | – | – | – | – | – |
| CC(C)C1=CC2=CCC3[C@](C)(CCC[C@]3(C)C(=O)O)C2CC1 (stereo partly drawn) [ABIETIC ACID] | – | – | – | 3.13 | 0.107 | 0.079 | 0.1 | 0.165 | 0.173 | 0.528 | 0.61 |
| CC(=O)Nc1ccc(OC(=O)c2ccccc2O)cc1 [ACETAMINOSALOL, reference compound] | – | – | – | 12.5 | 0.085 | 0.078 | 0.083 | 0.085 | 0.103 | 0.127 | 0.198 |
| CC(=O)OCC[N+](C)(C)C.[Cl-] [ACETYLCHOLINE, reference compound] | – | – | – | 6.25 | 0.104 | 0.087 | 0.085 | 0.113 | 0.164 | 0.27 | 0.352 |
| C[n+]1c2cc(N)ccc2cc2ccc(N)cc21.[Cl-] [ACRIFLAV- INIUM HYDRO- CHLORIDE, reference compound] | 0.126 | 0.229 | 0.151 | – | – | – | – | – | – | – | – |
| CCc1cccc(CC)c1N(COC)C(=O)CCl [ALACHLOR] | 0.101 | 0.142 | 0.45 | – | – | – | – | – | – | – | – |
| COc1c2c(cc3c1OCO3)[C@]13C=C[C@H](OC)C[C@H]1N(C2)C[C@@H]3O [AMBELLINE] | 0.071 | 0.302 | 0.057 | – | – | – | – | – | – | – | – |
| COc1ccc([C@@H](C)C(=O)c2ccc(O)cc2O)cc1 [ANGOLENSIN (R)] | 0.327 | 0.652 | 0.062 | – | – | – | – | – | – | – | – |
| CC(=O)O[C@@H]1C[C@@]2(C)[C@H](c3ccoc3)C[C@H]3O[C@]32[C@]2(C)C(=O)C(O)=C3C(C)(C)C(=O)C=C[C@]3(C)[C@@H]12 [ANTHOTHECOL] | – | – | – | 3.13 | 0.161 | 0.085 | 0.12 | 0.262 | 0.537 | 0.581 | 0.557 |
| C#CCCCCCCCCCCCC(O)CC(O)CO (stereo not drawn) [AVO- CADYNE] | 0.132 | 0.425 | 0.265 | – | – | – | – | – | – | – | – |
| C#CCCCCCCCCCCCC(=O)CC(O)COC(C)=O (stereo not drawn) [AVO- CADYNONE ACETATE] | 0.126 | 0.275 | 0.057 | – | – | – | – | – | – | – | – |
| C=CCCCCCCCCCCCC(O)CC(O)CO (stereo not drawn) [AVOCADENE] | – | – | – | 6.25 | 0.097 | 0.074 | 0.09 | 0.108 | 0.134 | 0.209 | 0.408 |
| C#CCCCCCCCCCCCC(O)CC(O)COC(C)=O (stereo not drawn) [AVOCADYNE ACETATE] | 0.389 | 0.406 | 0.039 | – | – | – | – | – | – | – | – |
| O=C1c2ccccc2-c2cccc3cccc1c23 [BENZANTHRONE] | – | – | – | 3.13 | 0.108 | 0.09 | 0.123 | 0.263 | 0.491 | 0.547 | 0.383 |
| COc1ccc(-c2coc3cc(O)cc(O)c3c2=O)cc1 [BIO- CHANIN A] | 0.112 | 0.297 | 0.055 | – | – | – | – | – | – | – | – |
